Results from ChEMBL document CHEMBL5244255, “An insight on medicinal attributes of 1,2,4-triazoles” (Eur J Med Chem, 2020).
Converted amounts (≈) assume the structure as drawn.

Assays:
Candida albicans = test: Antifungal activity against Candida albicans Y0109 assessed as fungal growth inhibition; format: functional
BT-20 = test: Anticancer activity against human BT-20 cells assessed as cell growth inhibition incubated for 48 hrs by MTT assay; format: functional, cell-based; settings: BT-20, 48 h
DU-145 = test: Anticancer activity against human DU-145 cells assessed as cell growth inhibition incubated for 48 hrs by MTT assay; format: functional, cell-based; settings: DU-145, 48 h
A549 = test: Anticancer activity against human A549 cells assessed as cell growth inhibition incubated for 48 hrs by MTT assay; format: functional, cell-based; settings: A549, 48 h
[1] = Anticancer activity against human SK-MEL-128 cells assessed as cell growth inhibition incubated for 48 hrs by MTT assay; format: functional, cell-based; settings: SK-MEL-128, 48 h
Leishmania major [2] = test: Potency index, ratio of test compound IC50 to miltefosine IC50 for antileishmanial activity against promastigotes stage of leishmania major; format: functional
Leishmania major [3] = test: Antileishmanial activity against promastigotes stage of Leishmania major; format: functional, organism-based
Leishmania major [4] = test: Potency index, ratio of test compound IC50 to amphotericin B IC50 for antileishmanial activity against promastigotes stage of leishmania major; format: functional
Trypanosoma cruzi [5] = test: Trypanocidal activity against amastigote stage of Trypanosoma cruzi; format: functional, organism-based
Trypanosoma cruzi [6] = test: Trypanocidal activity against epimastigote stage of Trypanosoma cruzi; format: functional, organism-based
[7] = test system: Mycobacterium tuberculosis; test: Antimycobacterial activity against Mycobacterium tuberculosis H37Rv measured after 8 to 9 days; format: functional; settings: time 8-9 day
[8] = Inhibition of Mycobacterium tuberculosis shikimate dehydrogenase
[9] = test system: Xanthomonas oryzae pv. oryzae; test: Antibacterial activity against Xanthomonas oryzae pv. oryzae assessed as bacterial growth inhibition; format: functional, organism-based
MDA-MB-231 = test: Antiproliferative activity against human MDA-MB-231 cells assessed as cell growth inhibition by MTT assay; format: functional, cell-based
Plasmodium falciparum = test: Antimalarial activity against Plasmodium falciparum; format: functional, organism-based
[10] = test system: Mycobacterium tuberculosis; test: Antimycobacterial activity against Mycobacterium tuberculosis H37Rv; format: functional
Jurkat = test: Antiproliferative activity against human jurkat cells assessed as cell growth inhibition incubated for 48 hrs by MTT assay; format: functional, cell-based
RS4-11 = test: Antiproliferative activity against human RS4-11 cells assessed as cell growth inhibition incubated for 48 hrs by MTT assay; format: functional, cell-based; settings: RS4-11, 48 h
HeLa = test: Antiproliferative activity against human HeLa cells assessed as cell growth inhibition incubated for 48 hrs by MTT assay; format: functional, cell-based
HT-29 = test: Antiproliferative activity against human HT-29 cells assessed as cell growth inhibition incubated for 48 hrs by MTT assay; format: functional, cell-based; settings: HT-29, 48 h
MCF7 = test: Antiproliferative activity against human MCF7 cells assessed as cell growth inhibition incubated for 48 hrs by MTT assay; format: functional, cell-based; settings: MCF7, 48 h
[11] = test system: Mycobacterium tuberculosis; test: Antimycobacterial activity against Mycobacterium tuberculosis H37Rv measured […] by MABA assay; format: functional
[12] = test system: Mycobacterium tuberculosis; test: Potency index, ratio of test compound MIC to Pyrazinamide MIC for antimycobacterial activity against Mycobacterium tuberculosis H37Rv; format: functional
Staphylococcus aureus = test: Antibacterial activity against Staphylococcus aureus assessed as bacterial growth inhibition incubated for 16 hrs; format: functional
[13] = Plasmodium falciparum, read-out: IC50

SMILES: O=C(OC1CCN(CC(O)(Cn2cncn2)c2ccc(F)cc2F)CC1)C(F)(F)Cl (configuration not stated)
- MIC80 (Candida albicans): 9 nM (≈ 4.06 ng/mL)

SMILES: Nn1c(Cc2ccc(Cl)c(Cl)c2)nn(CC(=O)NNC(=O)c2cc3cc(Cl)ccc3oc2=O)c1=O
- IC50 (BT-20): 3.1 µg/mL (≈ 5.76 µM)
- IC50 (DU-145): 3.1 µg/mL (≈ 5.76 µM)
- IC50 (A549): 3.1 µg/mL (≈ 5.76 µM)
- IC50 [1]: 3.1 µg/mL (≈ 5.76 µM)

SMILES: CC(C)C(C(=O)O)N1C(N)=NNC1(C)c1ccccc1O (configuration not stated)
- Ratio IC50 (Leishmania major [2]): 36
- IC50 (Leishmania major [3]): 0.0312 µg/mL (≈ 0.107 µM)
- Ratio IC50 (Leishmania major [4]): 36

SMILES: CC(C)SC1NN=C(/C=C/C=C/c2ccc3c(c2)OCO3)N1C1CCCCC1 (configuration not stated)
- IC50 (Trypanosoma cruzi [5]): 3.61 µM
- IC50 (Trypanosoma cruzi [6]): 3.18 µM

SMILES: O=[N+]([O-])c1ccc(C2=Nn3c(nnc3-c3ccc(Br)cc3)CC2)cc1
- MIC [7]: 0.25 µg/mL (≈ 0.628 µM)
- IC50 [8]: 86.39 µg/mL (≈ 217 µM)

SMILES: CCCCCCCCCC(=O)OC1CCN(CC(O)(Cn2cncn2)c2ccc(F)cc2F)CC1 (configuration not stated)
- MIC80 (Candida albicans): 9 nM (≈ 4.43 ng/mL)

SMILES: COc1cccc(NC(=O)CSc2nnc(C3CCN(c4ncnc5ccccc45)CC3)n2-c2ccccc2)c1
- EC50 [9]: 34.5 µg/mL (≈ 62.5 µM)

SMILES: CCCCCCC(=O)OC1CCN(CC(O)(Cn2cncn2)c2ccc(F)cc2F)CC1 (configuration not stated)
- MIC80 (Candida albicans): 9 nM (≈ 4.05 ng/mL)

SMILES: Cc1ccc(-n2nc(C)n(-n3c(-c4cc5ccccc5oc4=O)cs/c3=N\c3ccccc3)c2=O)cc1
- IC50 (MDA-MB-231): 0.16 µg/mL (≈ 0.315 µM)

SMILES: COc1ccc(-c2cc(-c3c(C)nn(-c4ccccc4)c3-n3cncn3)n3c(c2)nc2ccccc23)cc1
- IC50 (Plasmodium falciparum; [13]): 0.041 µg/mL (≈ 0.0824 µM)

SMILES: OC1(c2nnc(-c3ccncc3)[nH]2)CCCCC1
- MIC [10]: 0.59 µg/mL (≈ 2.42 µM)

SMILES: Cc1nn(-c2ccccc2)c(-n2cncn2)c1-c1cc(-c2ccccc2)cc2nc3ccccc3n12
- IC50 (Plasmodium falciparum; [13]): 0.041 µg/mL (≈ 0.0877 µM)

SMILES: COc1cc(C(=O)n2nc(-c3ccc(Br)cc3)nc2N)cc(OC)c1OC
- IC50 (Jurkat): < 1 µM
- IC50 (RS4-11): < 1 µM
- IC50 (HeLa): < 1 µM
- IC50 (HT-29): < 1 µM
- IC50 (MCF7): < 1 µM

SMILES: CC(C)(C)C(=O)OC1CCN(CC(O)(Cn2cncn2)c2ccc(F)cc2F)CC1 (configuration not stated)
- MIC80 (Candida albicans): 9 nM (≈ 3.8 ng/mL)

SMILES: COc1ccc(-n2ncn(Cc3cn(Cc4cc(=O)oc5cc(C)ccc45)nn3)c2=O)cc1
- MIC [11]: 1.6 µg/mL (≈ 3.6 µM)
- Ratio [12]: 2

SMILES: Cc1nn(-c2ccccc2)c(=O)n1-n1c(-c2cc3ccccc3oc2=O)cs/c1=N\c1ccccc1
- IC50 (MDA-MB-231): 0.16 µg/mL (≈ 0.324 µM)

SMILES: COc1ccc(/N=c2\scc(-c3cc4ccccc4oc3=O)n2-n2c(C)nn(-c3ccc(Br)cc3)c2=O)cc1
- IC50 (MDA-MB-231): 0.16 µg/mL (≈ 0.266 µM)

SMILES: COc1ccc(-n2ncn(Cc3cn(Cc4cc(=O)oc5ccc(C)cc45)nn3)c2=O)cc1
- MIC [11]: 1.6 µg/mL (≈ 3.6 µM)
- Ratio [12]: 2

SMILES: Cc1nn(-c2ccccc2)c(-n2cncn2)c1-c1cc(-c2ccc(O)cc2)cc2nc3ccccc3n12
- IC50 (Plasmodium falciparum): 0.041 µg/mL (≈ 0.0848 µM)
- IC50 (Plasmodium falciparum; [13]): 0.054 µg/mL (≈ 0.112 µM)

SMILES: CCCCCCCCCCCCCCCCOP(=O)([O-])OCC[N+](C)(C)C [MILTEFOSINE]
- IC50 (Leishmania major [3]): 3.19 µg/mL (≈ 7.83 µM)

SMILES: OC1CCC(C(O)c2nnc(-c3ccncc3)[nH]2)CC1O (configuration not stated)
- MIC [10]: 0.59 µg/mL (≈ 2.03 µM)

SMILES: CCN(CC)c1ccc2cc(C(=O)NNC(=O)Cn3nc(C)n(N)c3=O)c(=O)oc2c1
- IC50 (BT-20): 3.1 µg/mL (≈ 7.22 µM)
- IC50 (DU-145): 3.1 µg/mL (≈ 7.22 µM)
- IC50 (A549): 3.1 µg/mL (≈ 7.22 µM)
- IC50 [1]: 3.1 µg/mL (≈ 7.22 µM)

SMILES: Nn1c(Cc2ccc(Br)cc2)nn(CC(=O)NNC(=O)c2cc3cc(Cl)cc(Cl)c3oc2=O)c1=O
- IC50 (BT-20): 3.1 µg/mL (≈ 5.32 µM)
- IC50 (DU-145): 3.1 µg/mL (≈ 5.32 µM)
- IC50 (A549): 3.1 µg/mL (≈ 5.32 µM)
- IC50 [1]: 3.1 µg/mL (≈ 5.32 µM)

SMILES: NC1=NNC(c2ccccc2O)N1C(Cc1cc2ccccc2[nH]1)C(=O)O (configuration not stated)
- Ratio IC50 (Leishmania major [2]): 36
- IC50 (Leishmania major [3]): 0.0312 µg/mL (≈ 0.0854 µM)
- Ratio IC50 (Leishmania major [4]): 36

SMILES: C(/C=C/c1ccc2c(c1)OCO2)=C\C1=NNC(SCc2ccccc2)N1C1CCCCC1 (configuration not stated)
- IC50 (Trypanosoma cruzi [5]): 3.61 µM
- IC50 (Trypanosoma cruzi [6]): 3.18 µM

SMILES: COc1cccc(-c2nc(N)n(C(=O)c3cc(OC)c(OC)c(OC)c3)n2)c1
- IC50 (Jurkat): < 1 µM
- IC50 (RS4-11): < 1 µM
- IC50 (HeLa): < 1 µM
- IC50 (HT-29): < 1 µM
- IC50 (MCF7): < 1 µM

SMILES: CC1(c2ccccc2O)NN=C(N)N1C(Cc1cc2ccccc2[nH]1)C(=O)O (configuration not stated)
- Ratio IC50 (Leishmania major [2]): 36
- IC50 (Leishmania major [3]): 0.0312 µg/mL (≈ 0.0822 µM)
- Ratio IC50 (Leishmania major [4]): 36

SMILES: CCCCSC1NN=C(/C=C/C=C/c2ccc3c(c2)OCO3)N1C1CCCCC1 (configuration not stated)
- IC50 (Trypanosoma cruzi [5]): 3.61 µM
- IC50 (Trypanosoma cruzi [6]): 3.18 µM

SMILES: Cc1ccc2c(Cn3cc(Cn4cnn(-c5ccccc5)c4=O)nn3)cc(=O)oc2c1
- MIC [11]: 1.6 µg/mL (≈ 3.86 µM)
- Ratio [12]: 2

SMILES: O=C(CSc1nnc(C2CCN(c3ncnc4ccccc34)CC2)n1-c1ccccc1)Nc1ccccc1[N+](=O)[O-]
- EC50 [9]: 34.5 µg/mL (≈ 60.9 µM)

SMILES: S=c1[nH]nc(/C=C/C=C/c2ccc3c(c2)OCO3)n1C1CCCCC1
- IC50 (Trypanosoma cruzi [5]): 8.87 µM
- IC50 (Trypanosoma cruzi [6]): 18.3 µM

SMILES: COc1ccc(-n2ncn(Cc3cn(Cc4cc(=O)oc5ccc(Cl)cc45)nn3)c2=O)cc1
- MIC [11]: 1.6 µg/mL (≈ 3.44 µM)
- Ratio [12]: 2

SMILES: CC(C)C(=O)OC1CCN(CC(O)(Cn2cncn2)c2ccc(F)cc2F)CC1 (configuration not stated)
- MIC80 (Candida albicans): 9 nM (≈ 3.68 ng/mL)

SMILES: COc1ccc(/C=N/n2c(S)nnc2CNC(=O)c2ccccc2)cc1
- MIC (Staphylococcus aureus): 3.12 µg/mL (≈ 8.5 µM)
